Measurements taken from patent publication US20070027143A1, “Novel substituted 2,3-benzodiazepine derivatives” (priority 2003, published 2007).
Read-outs that look alike come from different tables or passages of the source. Marks after values point to notes of the source that are not given here.

Experiments:
[1] = test system: CD1 mice; test: Anticonvulsant activity, pentetrazole induced seizures; assay type: in vivo; settings: Mus musculus; po.; read-out: Pentetrazol ED50
Method in brief: (§1)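 Compounds were given by mouth in three doses to groups of ten male CD1 mice. Seizures were then provoked chemically, usually 60 min later. Clonic-tonic seizures and lethality were recorded.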

[2] = test system: CD1 mice; test: Anticonvulsant activity, strychnine induced seizures; assay type: in vivo; settings: Mus musculus; po.; read-out: Strychnine ED50
Method in brief: as §1

[3] = test system: CD1 mice; test: Anticonvulsant activity, bemegride induced seizures; assay type: in vivo; settings: Mus musculus; po.; read-out: Bemegride ED50
Method in brief: as §1

[4] = test system: CD1 mice; test: Anticonvulsant activity, bicuculline induced seizures; assay type: in vivo; settings: Mus musculus; po.; read-out: Bicuculline ED50
Method in brief: as §1

[5] = test system: CD1 mice; test: Anticonvulsant activity, 4-aminopyridine induced seizures; assay type: in vivo; settings: Mus musculus; po.; read-out: 4-AP ED50
Method in brief: as §1

[6] = test system: Lewis rats; test: Autoimmune encephalomyelitis model, neurological (clinical) symptoms; assay type: in vivo; settings: for Neurological symptoms (change, %): day 24 after immunization; for change in vivo at 1.875 mg/kg / change in vivo at 3.75 mg/kg / change in vivo at 7.5 mg/kg / change in vivo at 15 mg/kg / change in vivo at 0.2 mg/kg / change in vivo at 0.5 mg/kg / change in vivo at 1 mg/kg: Rattus norvegicus, read-out: Neurological symptoms (change compared to controls, %)
Description: The compounds were administered intraperitoneally twice a day for 8 days, starting on day 10 after immunization and with an observation period until symptoms were present. 5-15 animals were used in each group. Their weights were 160-180 g (Lewis rats, female) and 180-220 g (Lewis rats, male). The activity of the compounds was determined according to the symptom score values, and compared to those of the control group (see Table 6). Histopathological investigations were carried out on the brain stem, the spinal cord, and the sciatic nerve (Gijbels et al., J. Clin. Invest. 94:2177 (1994)) using 5-10 animal/group.
Compounds of the invention were further investigated in the autoimmune encephalomyelitis model in rats as outlined in this description before, with the variance that 10 animals were used in each group, of weights 140-160 g (Lewis rats, female).

[7] = test system: CD1 mice; test: Anti-tremor effect, harmaline induced tremor; assay type: in vivo; settings: po., Litchfield-Wilcoxon, limits in brackets
[8] = test system: BN rats; test: Bronchial hyperresponsiveness of ovalbumin sensitized, antigen challenged BN rats (tracheal rings, acetylcholine); assay type: in vivo; settings: 3.0 mg/kg po, 2 hours pre-challenge, mean ± SE
From the text: Bronchial hyperresponsiveness (BHR) and airway eosinophilia (AEP) are characteristic features of bronchial asthma. BHR is typified by an exaggerated response to a wide variety of stimuli that can induce an increased resistance to airflow in the airways. AEP is a result of prolonged eosinophil infiltration, mast cell, and T cell activation in the airways. In actively (e.g., ovalbumin) immunized rats (e.g., Brown Norway [BN] strain), repeated sensitization followed by antigenic challenge results in lung eosinophilia and bronchial hyperresponsiveness to different spasmogens (e.g., acetylcholine). This is the most frequently employed model for studying potential anti-asthmatic effects of new chemical entities.
BN rats were actively immunized with allergen (ovalbumin). On day one, rats were sensitized with the subcutaneous administration of ovalbumin suspended in Al(OH)3 (2.5 μg ovalbumin +20 mg Al(OH)3 in 0.5 ml saline). Booster injections (same dose and same route) were given at day 14 and 21. Simultaneously at each occasion 0.25 ml of Bordatella pentussis vaccine was injected intraperitoneally. On day 28, animals were challenged by inhalation of the antigen (vaporized 1% OVA solution for 1 hour). Test compounds were administered orally 2 hours pre-challenge.
48 hours following challenge, they were sacrificed by an overdose of urethane (4-5 ml of 15% urethane given i.p.), bronchoalveolar lavage fluid (BALF) was obtained, and tracheae dissected from the animals. Eosinophil cell count (cells/ml BALF) was determined manually using a selective stain for eosinophils and counting the cells in a Buerker chamber. BHR was determined using tracheal rings suspended in an organ bath. After an equilibration period of 30 minutes, cumulative concentration response curves to acetylcholine were determined. Maximal response of control (unchallenged, non-treated) tracheal rings is obtained at 10^−3 M acetylcholine. The height of this response is defined as 100%. All other contractions are expressed as a percentage and related to the control response.

[9] = test system: Lewis rats; test: Autoimmune encephalomyelitis model, neurological (clinical) symptoms; assay type: in vivo; settings: Rattus norvegicus, po, female rats, read-out: Neurological symptoms (change compared to controls, %); for change in vivo at 3.75 mg/kg: 3.75 mg/kg p.o.
[10] = ip, 1.875 mg/kg ip., female rats, 0-8 day
[11] = ip, 1.875 mg/kg ip., female rats, 0-14 day
[12] = ip, 3.75 mg/kg ip., female rats, 0-8 day
[13] = ip, 3.75 mg/kg ip., female rats, 0-14 day

## Cc1nnc(N2N=C(c3ccc(N)cc3)c3cc4c(cc3C[C@H]2C)OCO4)s1 [Example 86, (R)-5-(4-Aminophenyl)-8-methyl-7-(5-methyl-1,3,4-thiadiazol-2-yl)-8,9-dihydro-7H-1,3-dioxolo-[4,5-h][2,3]benzodiazepine]
[1]
  ED50: 10 mg/kg
[2]
  ED50: 10.6 mg/kg
[3]
  ED50: 11.2 mg/kg
[4]
  ED50: 4.6 mg/kg
[5]
  ED50: 10.1 mg/kg
[6]; 1.875 mg/kg ip., female rats
  Neurological symptoms (change, %): −42%
[6]; 1.875 mg/kg ip., male rats
  Neurological symptoms (change, %): +54%
[6]; 3.75 mg/kg ip., female rats
  Neurological symptoms (change, %): −21%
[6]; 3.75 mg/kg ip., male rats
  Neurological symptoms (change, %): −72%
[6]; 7.5 mg/kg ip., female rats
  Neurological symptoms (change, %): −62%
[6]; 7.5 mg/kg ip., male rats
  Neurological symptoms (change, %): −66%
[6]; 15 mg/kg ip., female rats
  Neurological symptoms (change, %): −85%
[6]; 15 mg/kg ip., male rats
  Neurological symptoms (change, %): −67%
[6]; [10]
  change in vivo at 1.875 mg/kg: -40%
[6]; [11]
  change in vivo at 1.875 mg/kg: -39%
[6]; ip, 1.875 mg/kg ip., male rats, 0-8 day
  change in vivo at 1.875 mg/kg: 5%
[6]; ip, 1.875 mg/kg ip., male rats, 0-14 day
  change in vivo at 1.875 mg/kg: -8%
[6]; [12]
  change in vivo at 3.75 mg/kg: -3%
[6]; [13]
  change in vivo at 3.75 mg/kg: -18%
[6]; ip, 3.75 mg/kg ip., male rats, 0-8 day
  change in vivo at 3.75 mg/kg: -70%
[6]; ip, 3.75 mg/kg ip., male rats, 0-14 day
  change in vivo at 3.75 mg/kg: -77%
[6]; ip, 7.5 mg/kg ip., female rats, 0-8 day
  change in vivo at 7.5 mg/kg: -62%
[6]; ip, 7.5 mg/kg ip., female rats, 0-14 day
  change in vivo at 7.5 mg/kg: -66%
[6]; ip, 7.5 mg/kg ip., male rats, 0-8 day
  change in vivo at 7.5 mg/kg: -65%
[6]; ip, 7.5 mg/kg ip., male rats, 0-14 day
  change in vivo at 7.5 mg/kg: -70%
[6]; ip, 15 mg/kg ip., female rats, 0-8 day
  change in vivo at 15 mg/kg: -97%
[6]; ip, 15 mg/kg ip., female rats, 0-14 day
  change in vivo at 15 mg/kg: -85%
[6]; ip, 15 mg/kg ip., male rats, 0-8 day
  change in vivo at 15 mg/kg: -93%
[6]; ip, 15 mg/kg ip., male rats, 0-14 day
  change in vivo at 15 mg/kg: -67%
[6]; result in words
  Activity compared to the reference compound (histopathological and pharmacological investigations): more active than the reference compound GYKI 53773
[7]
  ED50, tremor induced by Harmaline 40 mg/kg ip.: 6.0(4.9-7.4) mg/kg po.
[8]
  MAX: relative contraction compared to the control at a maximal Ach concentration: 81 ± 14%
  pEC50 of acetylcholine: 4.95 ± 0.59 −log M

## Cc1nnc(N2N=C(c3ccc(N)c(C)c3)c3cc4c(cc3C[C@H]2C)OCO4)s1 [Example 119, (R)-5-(4-amino-3-methylphenyl)-8-methyl-7-(5-methyl-1,3,4-thiadiazol-2-yl)-8,9-dihydro-7H-1,3-dioxolo-[4,5-h][2,3]benzodiazepine]
[1]
  ED50: 5 mg/kg
[2]
  ED50: 8.4 mg/kg
[3]
  ED50: 5.7 mg/kg
[4]
  ED50: 2.5 mg/kg
[5]
  ED50: 2.68 mg/kg
[6]; 0.2 mg/kg i.p., female rats
  Neurological symptoms (change, %): −37%
[6]; 0.5 mg/kg i.p., female rats
  Neurological symptoms (change, %): −35%
[6]; 0.5 mg/kg p.o., female rats
  Neurological symptoms (change, %): −1%
[6]; 1.0 mg/kg i.p., female rats
  Neurological symptoms (change, %): −72** %
[6]; 1.0 mg/kg p.o., female rats
  Neurological symptoms (change, %): −23%
[6]; 1.875 mg/kg ip., female rats
  Neurological symptoms (change, %): −71** %
[6]; 1.875 mg/kg p.o., female rats
  Neurological symptoms (change, %): −50** %
[6]; 3.75 mg/kg ip., female rats
  Neurological symptoms (change, %): −90** %
[6]; 3.75 mg/kg p.o., female rats
  Neurological symptoms (change, %): −61*** %
[6]; ip, 0.2 mg/kg i.p., female rats, 0-8 day
  change in vivo at 0.2 mg/kg: -36%
[6]; ip, 0.2 mg/kg i.p., female rats, 0-14 day
  change in vivo at 0.2 mg/kg: -37%
[6]; ip, 0.5 mg/kg i.p., female rats, 0-8 day
  change in vivo at 0.5 mg/kg: -33%
[6]; ip, 0.5 mg/kg i.p., female rats, 0-14 day
  change in vivo at 0.5 mg/kg: -35%
[6]; ip, 1.0 mg/kg i.p., female rats, 0-8 day
  change in vivo at 1 mg/kg: -75%
[6]; ip, 1.0 mg/kg i.p., female rats, 0-14 day
  change in vivo at 1 mg/kg: -72%
[6]; [10]
  change in vivo at 1.875 mg/kg: -72%
[6]; [11]
  change in vivo at 1.875 mg/kg: -71%
[6]; [12]
  change in vivo at 3.75 mg/kg: -97%
[6]; [13]
  change in vivo at 3.75 mg/kg: -90%
[6]; po, 0.5 mg/kg p.o., female rats, 0-8 day
  change in vivo at 0.5 mg/kg: 2%
[6]; po, 0.5 mg/kg p.o., female rats, 0-14 day
  change in vivo at 0.5 mg/kg: -1%
[6]; po, 1.0 mg/kg p.o., female rats, 0-8 day
  change in vivo at 1 mg/kg: -20%
[6]; po, 1.875 mg/kg p.o., female rats, 0-8 day
  change in vivo at 1.875 mg/kg: -50%
[6]; po, 1.875 mg/kg p.o., female rats, 0-14 day
  change in vivo at 1.875 mg/kg: -50%
[8]
  MAX: relative contraction compared to the control at a maximal Ach concentration: 82 ± 7%
  pEC50 of acetylcholine: 4.35 ± 0.36 −log M
other
  melting point: 158 to 160 °C
[9]; 1.0 mg/kg p.o., 0-14 day
  change in vivo at 1 mg/kg: -23%
[9]; 0-8 day
  change in vivo at 3.75 mg/kg: -64%
[9]; 0-14 day
  change in vivo at 3.75 mg/kg: -61%
